The assay concerns Mycobacterium tuberculosis. Briefly: Antimycobacterial activity against Mycobacterium tuberculosis by agar dilution method. In kind it is functional. (In general: In agar dilution, organisms are placed on agar that contains the substance at set levels.)

Among the data in ChEMBL document CHEMBL3046633, “Synthesis and antimycobacterial activities of some new N-acylhydrazone and thiosemicarbazide derivatives of 6-methyl-4,5-dihydropyridazin-3(2H)-one” (2012) are MIC values, retold here.

Converted amounts (≈) assume the structure as drawn.

Usually MIC stands for the smallest concentration in the dilution series that meets the test's criterion for growth inhibition. A higher MIC goes with a less susceptible organism. In turn, `CC1=NN(CC(=O)N/N=C/c2ccc(Cl)cc2Cl)C(=O)CC1` registered an MIC of 0.78 µM (≈ 0.266 µg/mL).
As for `CC1=NN(CC(=O)N/N=C/c2ccc(C(F)(F)F)cc2)C(=O)CC1`, the figure is 1.56 µM (≈ 0.531 µg/mL); as for `CC1=NN(CC(=O)N/N=C/c2ccc(N(C)C)cc2)C(=O)CC1`, 12.5 µM (≈ 3.94 µg/mL).
Then `CC1=NN(CC(=O)N/N=C/c2ccc(F)cc2)C(=O)CC1`, with 1.56 µM (≈ 0.453 µg/mL).
Then `CC1=NN(CC(=O)N/N=C/c2ccco2)C(=O)CC1`, with greater than 25 µM; and `CC1=NN(CC(=O)N/N=C/c2cccs2)C(=O)CC1`, with 25 µM (≈ 6.96 µg/mL); and `CCOc1ccc(/C=N/NC(=O)CN2N=C(C)CCC2=O)cc1`, with greater than 25 µM.
The compound `CC1=NN(CC(=O)N/N=C(\C)c2ccccc2)C(=O)CC1` yielded an MIC of 25 µM (≈ 7.16 µg/mL).
As for `CC1=NN(CC(=O)N/N=C(\C)c2ccc(Cl)cc2)C(=O)CC1`, the figure is 12.5 µM (≈ 4.01 µg/mL); as for `CC1=NN(CC(=O)N/N=C(\C)c2ccc(Br)cc2)C(=O)CC1`, 12.5 µM (≈ 4.57 µg/mL); as for `CC1=NN(CC(=O)N/N=C(\C)c2ccc(C)cc2)C(=O)CC1`, 25 µM (≈ 7.51 µg/mL).
As for `COc1ccc(/C(C)=N/NC(=O)CN2N=C(C)CCC2=O)cc1`, the figure is 25 µM (≈ 7.91 µg/mL); as for `CC1=NN(CC(=O)N/N=C(\C)c2ccc([N+](=O)[O-])cc2)C(=O)CC1`, 12.5 µM (≈ 4.14 µg/mL); as for `CC1=NN(CC(=O)N/N=C(\C)c2ccc(Cl)cc2Cl)C(=O)CC1`, 12.5 µM (≈ 4.44 µg/mL).
As for `CC1=NN(CC(=O)N/N=C(\C)c2ccc(-c3ccccc3)cc2)C(=O)CC1`, the figure is 25 µM (≈ 9.06 µg/mL).
Compound `CNC(=S)NNC(=O)CN1N=C(C)CCC1=O` gave an MIC greater than 25 µM.
As for `CCNC(=S)NNC(=O)CN1N=C(C)CCC1=O`, the figure is greater than 25 µM; as for `CC1=NN(CC(=O)NNC(=S)Nc2ccccc2)C(=O)CC1`, greater than 25 µM; as for `CC1=NN(CC(=O)NN)C(=O)CC1`, 25 µM (≈ 4.6 µg/mL).
Then `CC1=NN(CC(=O)N/N=C/c2ccccc2)C(=O)CC1`, with 12.5 µM (≈ 3.4 µg/mL).
As for `CC1=NN(CC(=O)N/N=C/c2ccc(Cl)cc2)C(=O)CC1`, the figure is 3.13 µM (≈ 0.96 µg/mL).
Compound `CC1=NN(CC(=O)N/N=C/c2ccc(Br)cc2)C(=O)CC1` returned an MIC of 1.56 µM (≈ 0.548 µg/mL).
Then `CC1=NN(CC(=O)N/N=C/c2ccc(C)cc2)C(=O)CC1`, with 12.5 µM (≈ 3.58 µg/mL).
As for `COc1ccc(/C=N/NC(=O)CN2N=C(C)CCC2=O)cc1`, the figure is 25 µM (≈ 7.56 µg/mL); as for `CC1=NN(CC(=O)N/N=C/c2ccc([N+](=O)[O-])cc2)C(=O)CC1`, 6.25 µM (≈ 1.98 µg/mL); as for `O=C(O)c1cn(C2CC2)c2cc(N3CCNCC3)c(F)cc2c1=O` [CIPROFLOXACIN], 1.56 µM (≈ 0.517 µg/mL).
Then `CC[C@@H](CO)NCCN[C@@H](CC)CO` [ETHAMBUTOL], with 1.56 µM (≈ 0.319 µg/mL); and `NNC(=O)c1ccncc1` [ISONIAZID], with 0.05 µM (≈ 0.00686 µg/mL); and `CO[C@H]1/C=C/O[C@@]2(C)Oc3c(C)c(O)c4c(O)c(c(/C=N/N5CCN(C)CC5)c(O)c4c3C2=O)NC(=O)/C(C)=C\C=C\[C@H](C)[C@H](O)[C@@H](C)[C@@H](O)[C@@H](C)[C@H](OC(C)=O)[C@@H]1C` [RIFAMPIN], with 0.1 µM (≈ 0.0823 µg/mL).
